In brackets after ≈: the same amount, converted by molar mass. Read-outs that look alike come from different tables or passages of the source.
Columns and labels:
[1] = Solubility in citric acid/disodium phosphate buffers; details: for solubility at 30 min: thermodynamic from solid
Experimental: 5.53% citric acid (monohydrate) and 1.75% disodium phosphate (anhydrous) were mixed together to prepare buffers (pH 2.5, 5.5, 7.4). A compound was added thereto, the mixture was stirred in a vortex mixer and subjected to ultrasonication for 30 minutes. Thereafter, the resultant was stirred in a vortex mixer again and then centrifuged at 15,000 rpm for 20 minutes. The levels of the compounds in the supernatants were then quantified by HPLC.

[2] = test system: mouse spleen cell; assay: cells; type: cell-based; details: Mus musculus, 24 h, read-out: Interferon-inducing activity: Minimum effective concentration
[3] = test system: Balb/c male mouse; assay: Interferon-inducing activity in mouse (in vivo), serum interferon titer after oral dosing
[4] = test system: IL-4 production; assay: Inhibitory activity against Th2 cytokine produced from sensitized spleen cells: IL-4; type: cell-based, mouse; details: Mus musculus, 72 h; for activity at 0.001 µM / activity at 0.01 µM / activity at 0.1 µM: read-out: Inhibitory activity against IL-4 production
Experimental: (§1) A 7-week-old BALB/c mouse was immunized intraperitoneally with aluminum hydroxide gel (4 mg, 100 μl) having 10 μg of ovalbumin adsorbed thereon, and it was subjected to additional immunization with the same agent 14 days later. Seven days thereafter, spleen was taken out, and suspended in RPMI-1640 comprising inactivated fetal bovine serum (10%), 2-mercaptoethanol ([…]), penicillin G (100 U/ml), and streptomycin (100 μg/ml). Thus, a splenic cell suspension was prepared. Ovalbumin (0.5 mg/ml) and a test compound were added to a splenic cell suspension (5×10^6 cell/200 μl/well), and the resultant was cultured at 37° C. in the presence of 5% CO2 for 3 days. The cytokine level in the culture supernatant was quantified by ELISA. IFN-γ and IL-4 were assayed using a kit available from Amersham, and IL-5 was assayed using a kit available from Endogen.

[5] = test system: IL-5 production; assay: Inhibitory activity against Th2 cytokine produced from sensitized spleen cells: IL-5; type: cell-based, mouse; details: Mus musculus, 72 h; for activity at 0.001 µM / activity at 0.01 µM / activity at 0.1 µM: read-out: Inhibitory activity against IL-5 production
Experimental: as §1

[6] = citric acid/disodium phosphate buffer, pH 2.5, aqueous buffer
[7] = citric acid/disodium phosphate buffer, pH 5.5, aqueous buffer
[8] = citric acid/disodium phosphate buffer, pH 7.4, aqueous buffer
[9] = dosage 0.1 mg/kg oral, serum 2 h after dosing, Balb/c mouse
[10] = dosage 0.3 mg/kg oral, serum 2 h after dosing, Balb/c mouse
[11] = concentration 0.1 nM, OVA-sensitized BALB/c spleen cells, 3 days
[12] = concentration 1 nM, OVA-sensitized BALB/c spleen cells, 3 days
[13] = concentration 10 nM, OVA-sensitized BALB/c spleen cells, 3 days
[14] = concentration 100 nM, OVA-sensitized BALB/c spleen cells, 3 days

SMILES	solubility at 30 min [1, 6]	solubility at 30 min [1, 7]	solubility at 30 min [1, 8]	minimal effective concentration [2]	Interferon-inducing activity ([3]; po, 0.3 mg/kg, 2 h)	Interferon-inducing activity ([3]; po, 0.1 mg/kg, 2 h)	further results
CCCCNc1nc(N)c2nc(O)n(Cc3ccc(N(C)C)nc3)c2n1 [Example 24, 2-Butylamino-9-(6-dimethylamino-3-pyridylmethyl)-8-hydroxyadenine]	27000 µg/mL (≈ 75800 µM)	22 µg/mL (≈ 61.7 µM)	1 µg/mL (≈ 2.81 µM)	0.003 µM	403 ± 146 U/ml		
CCCCOc1nc(N)c2nc(O)n(Cc3cccnc3C)c2n1 [Example 26, 2-Butoxy-8-hydroxy-9-(2-methyl-3-pyridylmethyl)adenine]	> 1000 µg/mL	6 µg/mL (≈ 18.3 µM)	3 µg/mL (≈ 9.14 µM)	0.001 µM	780 ± 190 U/ml	433 ± 366 U/ml	Interferon-inducing activity ([3]; po, 0.03 mg/kg, 2 h): 121 ± 11 U/ml
CCCCOc1nc(N)c2nc(O)n(Cc3ccncc3)c2n1 [Example 9, 2-Butoxy-8-hydroxy-9-(4-pyridylmethyl)adenine]	350 µg/mL (≈ 1110 µM)	4 µg/mL (≈ 12.7 µM)	3 µg/mL (≈ 9.54 µM)	0.003 µM	539 ± 107 U/ml		
CCCCOc1nc(N)c2nc(O)n(Cc3cnccn3)c2n1 [Example 10]							activity at 0.001 µM [4]: 54%; activity at 0.01 µM [4]: 3%; activity at 0.1 µM [4]: < 1%; solubility at 30 min ([1]; pH 2.5, aqueous buffer): 34 µg/mL (≈ 108 µM); solubility at 30 min ([1]; pH 5.5, aqueous buffer): 15 µg/mL (≈ 47.6 µM); solubility at 30 min ([1]; pH 7.4, aqueous buffer): 10 µg/mL (≈ 31.7 µM); Interferon-inducing activity ([3]; dosage 0.03 mg/kg oral, serum 2 h after dosing, Balb/c mouse): 89 ± 22 U/ml; Interferon-inducing activity [3, 9]: 409 ± 267 U/ml; Interferon-inducing activity [3, 10]: 733 ± 256 U/ml; activity at 0.001 µM [5]: 91%; activity at 0.01 µM [5]: 32%; activity at 0.1 µM [5]: 15%
CCCCOc1nc(N)c2nc(O)n(Cc3cccnc3)c2n1 [Example 8, 2-Butoxy-8-hydroxy-9-(3-pyridylmethyl)adenine]	784 µg/mL (≈ 2490 µM)	20 µg/mL (≈ 63.6 µM)	18 µg/mL (≈ 57.3 µM)	0.001 µM	936 ± 438 U/ml	725 ± 141 U/ml	Interferon-inducing activity ([3]; po, 0.01 mg/kg, 2 h): 13 ± 5 U/ml; Interferon-inducing activity ([3]; po, 0.03 mg/kg, 2 h): 167 ± 97 U/ml
CCCCOc1nc(N)c2nc(O)n(Cc3ccc(N(C)C)nc3)c2n1 [Example 16, 2-Butoxy-9-(6-dimethylamino-3-pyridylmethyl)-8-hydroxyadenine]	293 µg/mL (≈ 820 µM)			0.001 µM	716 ± 155 U/ml	251 ± 46 U/ml	
CCCCOc1nc(N)c2nc(O)n(Cc3ccc(OC)nc3)c2n1 [Example 2, 2-Butoxy-8-hydroxy-9-(6-methoxy-3-pyridylmethyl)adenine]				0.001 µM	2559 ± 495 U/ml	1211 ± 263 U/ml	activity at 0.0001 µM [4, 11]: 96%; activity at 0.001 µM [4, 12]: 4%; activity at 0.01 µM [4, 13]: < 1%; activity at 0.1 µM [4, 14]: < 1%; Interferon-inducing activity ([3]; po, 0.01 mg/kg, 2 h): 25 ± 17 U/ml; Interferon-inducing activity ([3]; po, 0.03 mg/kg, 2 h): 388 ± 87 U/ml; activity at 0.0001 µM [5, 11]: 98%; activity at 0.001 µM [5, 12]: 37%; activity at 0.01 µM [5, 13]: 14%; activity at 0.1 µM [5, 14]: 12%
CCCCOc1nc(N)c2nc(O)n(Cc3ccc(Cl)nc3Cl)c2n1 [Example 12, 2-Butoxy-9-(2,6-dichloro-3-pyridylmethyl)-8-hydroxyadenine]				0.01 µM			Interferon-inducing activity [3, 10]: 31 ± 5 U/ml
CCCCOc1nc(N)c2nc(O)n(Cc3ccc(N4CCCC4)nc3)c2n1 [Example 14, 2-Butoxy-9-(6-(1-pyrrolidinyl)-3-pyridylmethyl)-8-hydroxyadenine]				0.001 µM	570 ± 63 U/ml		
CCCCNc1nc(N)c2nc(O)n(Cc3cccnc3Cl)c2n1 [Example 18, 2-Butylamino-9-(2-chloro-3-pyridylmethyl)-8-hydroxyadenine]				0.01 µM	94 ± 49 U/ml		
CCCCOc1nc(N)c2nc(O)n(Cc3ccc(OCC)nc3)c2n1 [Example 3, 2-Butoxy-9-(6-ethoxy-3-pyridylmethyl)-8-hydroxyadenine]				0.001 µM	1966 ± 532 U/ml	353 ± 73 U/ml	
CCCCOc1ccc(Cn2c(O)nc3c(N)nc(OCCCC)nc32)cn1 [Example 4, 2-Butoxy-9-(6-n-butoxy-3-pyridylmethyl)-8-hydroxyadenine]				0.01 µM			
COCCOc1nc(N)c2nc(O)n(Cc3cccnc3)c2n1 [Example 31, 8-Hydroxy-2-(2-methoxy)ethoxy-9-(3-pyridylmethyl)adenine]							Solubility (level of compound in supernatant) ([1]; pH 2.5 buffer): >1,000 μg/ml; Solubility (level of compound in supernatant) ([1]; pH 5.5 buffer): 353 µg/mL; Solubility (level of compound in supernatant) ([1]; pH 7.4 buffer): 322 µg/mL
CCCCOc1nc(N)c2nc(O)n(Cc3ccc(N4CCCCC4)nc3)c2n1 [Example 13, 2-Butoxy-9-(6-piperidino-3-pyridylmethyl)-8-hydroxyadenine]				0.003 µM	304 ± 138 U/ml		
CCCCOc1nc(N)c2nc(O)n(Cc3cccnc3Cl)c2n1 [Example 5, 2-Butoxy-9-(2-chloro-3-pyridylmethyl)-8-hydroxyadenine]				0.003 µM	473 ± 9 U/ml	133 ± 33 U/ml	
CCCCOc1nc(N)c2nc(O)n(Cc3ccc(N4CCOCC4)nc3)c2n1 [Example 15, 2-Butoxy-9-(6-morpholino-3-pyridylmethyl)-8-hydroxyadenine]	140 µg/mL (≈ 350 µM)	1 µg/mL (≈ 2.5 µM)	< 1 µg/mL	0.001 µM	603 ± 147 U/ml	52 ± 32 U/ml	
CCCCOc1nc(N)c2nc(O)n(Cc3cccnc3OC)c2n1 [Example 6, 2-Butoxy-8-hydroxy-9-(2-methoxy-3-pyridylmethyl)adenine]				0.001 µM	1222 ± 248 U/ml	569 ± 42 U/ml	
CCCCNc1nc(N)c2nc(O)n(Cc3ccc(C)nc3Cl)c2n1 [Example 29, 2-Butylamino-9-(2-chloro-6-methyl-3-pyridylmethyl)-8-hydroxyadenine]				0.01 µM			Interferon-inducing activity [3, 10]: 619 ± 268 U/ml
CCCCOc1nc(N)c2nc(O)n(Cc3cnc(Cl)c(Cl)c3)c2n1 [Example 11, 2-Butoxy-9-(5,6-dichloro-3-pyridylmethyl)-8-hydroxyadenine]				0.003 µM			Interferon-inducing activity [3, 9]: 279 ± 177 U/ml; Interferon-inducing activity [3, 10]: 568 ± 160 U/ml
COc1nc(N)c2nc(O)n(Cc3cccnc3)c2n1 [Example 32, 8-Hydroxy-2-methoxy-9-(3-pyridylmethyl)adenine]	> 1000 µg/mL	82 µg/mL (≈ 301 µM)	25 µg/mL (≈ 91.8 µM)				
CCCCNc1nc(N)c2nc(O)n(Cc3ccc(Cl)nc3Cl)c2n1 [Example 23, 2-Butylamino-9-(2,6-dichloro-3-pyridylmethyl)-8-hydroxyadenine]				0.01 µM			Interferon-inducing activity [3, 9]: 42 ± 7 U/ml; Interferon-inducing activity [3, 10]: 414 ± 118 U/ml
CCCCOc1nc(N)c2nc(O)n(Cc3cnc(Cl)c(OC)c3)c2n1 [Example 7, 2-Butoxy-9-(6-chloro-5-methoxy-3-pyridylmethyl)-8-hydroxyadenine]				0.001 µM			Interferon-inducing activity [3, 9]: 347 ± 149 U/ml; Interferon-inducing activity [3, 10]: 845 ± 22 U/ml
CCCCNc1nc(N)c2nc(O)n(Cc3cccnc3C)c2n1 [Example 28, 2-Butylamino-8-hydroxy-9-(2-methyl-3-pyridylmethyl)adenine]	> 1000 µg/mL	8 µg/mL (≈ 24.4 µM)	4 µg/mL (≈ 12.2 µM)	0.01 µM	1462 ± 260 U/ml	186 ± 62 U/ml	

— patent US7521454B2 (Dainippon Sumitomo Pharma Co., Ltd., priority 2001, dated 2009)
